In patent US20200345689A1, “METHODS AND CO[…] RRx-001 FOR RADIOPROTECTION” (EpicentRx, Inc., priority 2018, published 2020):

What was measured:
bone marrow = assay: Histopathology of sternal bone marrow (cellularity grade, megakaryocytes) after sublethal TBI or sham irradiation; type: in vivo, mice
Procedure: To determine the pathophysiological effects of RRx-001 on hematopoietic protection in mice, CD2F1 male mice were treated with 10 mg/kg RRx-001 or the vehicle control 24 hours prior to a sublethal dose of TBI (7 Gy at 0.6 Gy/min using High-level Cobalt-60) or sham irradiation (day 0) according to the table below.
CD2F1 male mice (n=3/group) were divided into 4 experimental groups: 1) irradiation+vehicle, 2) irradiation+RRx-001, 3) sham-irradiation+vehicle and 4) sham-irradiation+RRx-001. Either 10 mg/kg RRx-001 or the vehicle control were IP injected 24 hours prior to either irradiation or sham-irradiation (day 0). On days 2, 7, 14, 21, and 28 post-irradiation (day 0) mice were humanely euthanized. Blood, bone marrow, and sternebrae were then collected. This experiment was performed in duplicate for a total of n=6 mice/group/time point.
Sternebrae from euthanized mice (n=6/group/time point) were collected on days 2, 7, 14, 21 and 28 post-irradiation. Sternebrae were fixed in 10% zinc-buffered formalin for at least 24 hours and up to 7 days. Fixed sternebrae were decalcified for 3 hr in 12-18% sodium EDTA (pH 7.4-7.5) and specimens dehydrated using graded ethanol concentrations and embedded in paraffin. Longitudinal 4μm sections were stained with regular hematoxylin and eosin. Two board-certified pathologist conducted histopathological evaluation of the samples. One of the pathologist scored all the samples blindly. Bone marrow was evaluated in situ within sternebrae and graded (Grade 1: <10%; Grade 2: 11-30%; Grade 3: 31-60%; Grade 4: 61-89%; Grade 5: >90%) for total cellularity. Megakaryocytes were also quantified based on the average per 10 high power fields (HPF) at 400× magnification using a BX43 or BX53 microscope (Olympus, Minneapolis, Minn.). Images were captured with an Olympus DP22 camera and imported into Olympus Cellsens Standard software for review.
Blood parameters were compared between treatment groups using an analysis of variance (ANOVA). The Wilcoxon test was also used for sensitivity and to potentially address data departures from normality. A longitudinal mixed model repeated measures was also implemented to provide a more complete data analysis of the sham-irradiated treatment groups' difference in overall time profile mean based on the blood parameters. Bone marrow data (megakaryocytes and grade) statistical analysis was carried out using a parametric test consisting of a general linear model analysis of variance (ANOVA with factors consisting of treatment group and pathologist) and the Kruskal-Wallis nonparametric test. The statistical data analysis was carried out using R software (Version 3.4.3, 2016) and the graphs made using GraphPad Prism version 7.03 (GraphPad Software, La Jolla, Calif.).
To determine the effect of RRx-001 on bone marrow, a histopathological analysis of bone marrow sternebrae was performed and the cellularity, as reported by grade (grade 1: <10%; grade 2: 11-30%; grade 3: 31-60%; grade 4: 61-89%; grade 5: >90% cellularity), and megakaryocyte numbers (averaged per 10 high-powered fields; HPF) were ascertained by two pathologists, one of which scored all the samples blindly (TAS, WEC).

superoxide dismutase = assay: Superoxide dismutase activity assay in hMSC; type: cell-based, human; details: 5 mM RRx-001 for 16 hours, 8 hours after 10 Gy irradiation
Procedure: The activity of superoxide dismutase activity was also assayed in hMSC. hMSC were treated for 16 hours with […] RRx-001 or vehicle, irradiated at 10 Gy or sham-irradiated and whole cell homogenate collected according to the manufacture's protocol. The assay measures the activity of all three forms of SOD. The amount of SOD activity (U/mL) was normalized to protein levels.

[1] = Tolerability and body weight in the hamster mucositis study; type: in vivo, hamsters
Procedure: (§1) Fifty-six (56) male Syrian Golden Hamsters were used in the study. Mucositis was induced by administering an acute radiation dose of 40 Gy directed to the left buccal cheek pouch on Day 0 at a rate of 2-2.5 Gy/min. Mucositis was evaluated clinically starting on Day 6 and continuing on alternate days until Day 28. Hamsters reaching a mucositis severity score of 4 or higher received buprenorphine (0.5 mg/kg) SC twice a day for 48 hours or until score dropped below 4.
(§2) Dosing was scheduled as follows: for animals in Groups 1-4, animals were dosed with RRx-001 (1, 3, or 10 mg/kg) or vehicle (1:2 DMA:PEG400 vol:vol ratio) once a day (QD) on Days −4, −1, 1, 4, 7, 11, 14, 18, 21, and 25 via intraperitoneal (IP) administration; animals in Groups 5-7 were dosed QD with RRx-001 (1, 3, or 10 mg/kg) on Days −4, −1, 1, 8, 15, and 22.
Dosing of all other groups continued as scheduled. Upon study conclusion, on Day 28, Animals were euthanized via CO2 inhalation and death was confirmed by monitoring heartbeat in accordance with USDA guidelines.

[2] = tested on: male Syrian Golden Hamsters; assay: Oral mucositis induced by acute radiation in hamsters; type: in vivo
Procedure: In this example, the ability of RRx-001 to treat oral mucositis induced by acute radiation was assess in hamsters.
as §1, §2
The significance of differences observed between the control and treatment group was evaluated by comparing the days with mucositis scores≥3 and <3 between groups using chi-square analysis. […] The percentage of animal days with a score of ≥3 in the Vehicle Group was 57.29%. […] There were numerous days where animals dosed with RRx-001 had percent ulceration days that were lower (which can be interpreted as ameliorative of disease severity) in comparison to vehicle-dosed animals.
An analysis of the severity of mucositis was performed using the Mann-Whitney rank sum analysis to compare the visual mucositis scores for the treatment group to the Vehicle control group on each day of evaluation. In this analysis, 2 days of significant reduction in the mucositis score are generally required before it is regarded as meaningful.

In the case of `O=C(CBr)N1CC([N+](=O)[O-])([N+](=O)[O-])C1` [RRx-001, 2-bromo-1-(3,3-dinitroazetidin-1-yl)ethan-1-one], the “bone marrow cellularity compared to the vehicle control” value (bone marrow; 7 Gy TBI, 10 mg/kg IP 24 hours prior, day 7) is reported as “slight increase in cellularity”, the “hematopoietic recovery as determined by the grade of bone marrow cellularity compared with control” value (bone marrow; 7 Gy TBI, 10 mg/kg IP 24 hours prior, day 14) is reported as “significantly accelerated hematopoietic recovery” and the number of megakaryocytes (bone marrow; 7 Gy TBI, 10 mg/kg IP, between days 7-28) is reported as “steady increase”. The number of megakaryocytes (bone marrow; 7 Gy TBI, 10 mg/kg IP, day 2) was “reduced”, the number of megakaryocytes (bone marrow; 7 Gy TBI, 10 mg/kg IP, day 7) was “severely depleted” and the “bone marrow cellularity grade” value (bone marrow; after irradiation (7 Gy TBI), 10 mg/kg IP 24 hours prior) was 1 (grade 1: <10%). The number of megakaryocytes (bone marrow; sham-irradiated, 10 mg/kg IP, day 14, vs vehicle control) was “significantly higher than the vehicle control”, the “overall cellularity of the bone marrow” value (bone marrow; sham-irradiated, 10 mg/kg IP, duration of the study) was no less than 90% and the “bone marrow cellularity grade” value (bone marrow; sham-irradiated, 10 mg/kg IP, duration of the study (days 2-28)) was 5 (grade 5: >90% cellularity). For the same molecule, the “Superoxide Dismutase Activity” value (superoxide dismutase) was “did not increase”, the body weight ([1]; Groups 2 and 5 (10 mg/kg)) was “lower weights than all other groups” and the “body weight after cessation of dosing” value ([1]; Groups 2 and 5 (10 mg/kg), in line with other groups by study termination) was “weight slowly recovered”. For the same molecule, the body weight ([1]; animals other than Groups 2 and 5 (1 and 3 mg/kg), duration of the study) was “steadily gained weight”, the tolerability ([1]; highest dose 10 mg/kg IP, Groups 2 and 5, dosing discontinued after Day 1) was “adverse side effects” and the “percent ulceration (mucositis score ≥3)” value ([2]; 10 mg/kg, Groups 2 and 5, only dosed on Days −4, −1, and 1) was “best response in decreasing percent ulceration”. For the same molecule, the “percent days of ulceration, twice weekly dosing vs dosing one time per week” value ([2]; 3 and 1 mg/kg concentrations (Groups 4 vs. Group 7)) was “more beneficial effects on percent days of ulceration”, the “mean daily mucositis scores” value ([2]; Group 2: 10 mg/kg IP, dosing terminated after Day 1, 40 Gy to left buccal cheek pouch) was “modest but significant enhancement of disease healing” and the “percentage of days with a mucositis score of ≥3 in comparison to the Vehicle Group” value ([2]; Group 2: 10 mg/kg on Days −4, −1, 1, chi-square, p<0.01) was “statistically lower”. The “mean daily mucositis scores” value ([2]; all other treatment groups (Groups 3-7: 1, 3 or 10 mg/kg IP)) was “tracked fairly close to each other, and with Vehicle dosed controls”, the “mucositis scores compared to the Vehicle control group” value ([2]; animals dosed with 1 mg/kg) was “multiple days of significant improvement” and the “mucositis scores compared to the Vehicle control group” value ([2]; animals dosed with 10 mg/kg) was “multiple days of significant improvement”.
